What was measured:
CYP 2C19 = CYP 2C19 (Homo sapiens, UniProt P33261); test: CYP assay; type: in vitro ADME; conditions: CYP assay per Drug Metabolism and Disposition 28, 1440-1448 (2000)
Method: The CYP assay was conducted according to the procedure in Drug Metabolism and Disposition, 28, 1440-1448 (2000).

[1] = Microsomal liver assay (rate of oxidative metabolism); type: in vitro ADME; conditions: human liver microsomes; 3 μM test compound, 1 mg/mL microsomal proteins, NADPH, 37° C.
Method: Mouse and rat liver microsomes were purchased from XenoTech LLC (Kansas City, Kans.), and human liver microsomes were obtained from BD Gentest (Woburn, Mass.).
The oxidative metabolism in liver microsomes of various species was studied under the following condition: 3 μM test compound (organic solvent content <0.1%), 1 mg/mL microsomal proteins, 1 mM β-nicotinamide adenine dinucleotide phosphase (β-NADPH), 100 mM phosphate buffer (pH 7.4), and 6.7 mM magnesium chloride. The reaction (n=3) was initiated by the addition of NADPH followed by incubation at 37° C. for 20 min. Aliquots of samples (0.1 mL) were taken at 0, 5, and 20 min, and the reaction was quenched by the addition of three volumes of acetonitrile. Samples were stored at −20° C. until analysis.
The rate of oxidation in liver microsomes was determined from the following equation: rate (nmol/min/mg protein)=k*C0/Cprotein, where k (1/min) is the turnover rate constant estimated from non-linear regression of the percent compound remaining (y)-time (t) curve using the equation y=y0*exp(−k*t); C0 is initial drug concentration (μM), and Cprotein is microsomal protein concentration (mg/mL).
Rates of metabolism are “binned” (classified) as follows: […]

Sequence of CYP 2C19 (P33261 whole entry): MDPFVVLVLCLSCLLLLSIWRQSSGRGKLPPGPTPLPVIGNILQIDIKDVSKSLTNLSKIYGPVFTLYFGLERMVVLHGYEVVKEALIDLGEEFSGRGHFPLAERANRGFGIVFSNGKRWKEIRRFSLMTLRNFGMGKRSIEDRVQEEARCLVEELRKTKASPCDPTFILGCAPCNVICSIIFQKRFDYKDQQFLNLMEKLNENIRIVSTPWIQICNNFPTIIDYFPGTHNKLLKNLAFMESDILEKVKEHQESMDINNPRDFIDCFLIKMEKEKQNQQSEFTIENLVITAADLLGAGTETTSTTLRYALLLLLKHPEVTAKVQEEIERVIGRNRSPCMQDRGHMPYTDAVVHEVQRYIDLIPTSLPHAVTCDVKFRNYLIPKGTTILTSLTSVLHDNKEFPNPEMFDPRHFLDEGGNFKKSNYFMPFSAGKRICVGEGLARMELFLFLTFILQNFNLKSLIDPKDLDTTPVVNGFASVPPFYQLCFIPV

SMILES | IC50 (CYP 2C19) [µM] | rate of metabolism [1] [nmol/min/mg]
CN1C(=O)N(c2cc(Cl)cc(Cl)c2)C(=O)[C@]12CN(c1ccccn1)C[C@H]2c1ccc(C#N)cc1 (relative stereo) [4-[(5S*,9R*)-3-(3,5-dichlorophenyl)-1-methyl-2,4-dioxo-7-pyridin-2-yl-1,3,7-triazaspiro[4.4]non-9-yl]-benzonitrile] | 0.11 | 0.2
CN1C(=O)N(c2cc(Cl)cc(Cl)c2)C(=O)[C@]12CN(c1ccc(C(=O)O)cn1)C[C@H]2c1ccc(C#N)cc1 [IId, 6-[(5S,9R)-9-(4-cyanophenyl)-3-(3,5-dichlorophenyl)-1-methyl-2,4-dioxo-1,3,7-triazaspiro[4.4]non-7-yl]nicotinic acid] | 38.2 ± 2.22 | 0.01 ± 0.01
